Entries after “also recorded” stand apart in the source; their conditions may differ.
Test system: SN12C-VHLshRNA-HIF-1α mutant and SN12C-VHLshRNA-HIF-2α mutant cells
Experiment: In vitro growth of VHL knockdown cells expressing prolyl hydroxylation defective HIF mutants
Type: cell-based, human
Conditions: 1 or 10 nM CCI-779, 5 days
Description: FIGS. 4A-4C. Rescue of CCI-779 growth suppression by HIF-1-α and HIF-2-α prolyl hydcroxylase mutants. SN12C-CSCG-VHLshRNA cells stably infected with the prolyl hydroxylation defective cDNA mutants p-Babe-puro-HA-HIF-1α (P564A), HIF-2α (P405A; P531A) or backbone vector were treated with CCI-779 or vehicle and harvested 24 hours later. (a) Lysates were subjected to immunoblotting for HIF-1α, HIF-2α, GLUT-1, CA-IX, p-eIF4G, p-S6 and β-Actin as loading control. (b) SN12C-VHLshRNA, SN12C-VHLshRNA-HIF-1α mutant, SN12C-VHLshRNA-HIF-2α mutant cells (1×10^5) were cultured in 10% serum rich media, in the presence of vehicle, 1 or 10 nM of CCI-779 for 5 days. Cell growth was measured by cell counts (n=3). […]
For in vitro experiments, cells (5×10^4) were plated and treated with 1 and 10 nM CCI-779 (kind gift of J. Gibbons, Wyeth) or vehicle (ethanol). On day 5-post treatment, cells were trypsinized, resuspended in DMEM with 10% FBS and counted using the VI CELL counter (Beckman Coulter), according to the manufacturer's instructions. […] In vivo tumorigenicity was measured by injection of 5×10^5 SN12C-CSCG, ACHN-CSCG, SN12C-CSCG-VHLshRNAi, ACHN-CSCG-VHLshRNAi, SN12C-CSCG-VHLshRNAi-pBABE, SN12C-CSCG-VHLshRNAi-pBABE-HA-HIF-2α (P405A; P531A) cells in 100 μl of Matrigel (Collaborative Biomedical) subcutaneously into the flanks of SCID mice. […]

**Q.** How did the “growth inhibitory effect of CCI-779 in cells expressing HIF mutants, in vitro” value turn out when `CO[C@H]1C[C@@H]2CC[C@@H](C)[C@@](O)(O2)C(=O)C(=O)N2CCCC[C@H]2C(=O)O[C@H]([C@H](C)C[C@@H]2CC[C@@H](OC(=O)C(C)(CO)CO)[C@H](OC)C2)CC(=O)[C@H](C)/C=C(\C)[C@@H](O)[C@@H](OC)C(=O)[C@H](C)C[C@H](C)/C=C/C=C/C=C/1C` [CCI-779] was run?
**A.** The value was “completely rescued; also recorded: reversal of both the in vitro and in vivo sensitivity”.

Source: US9261498B2, “Biomarker for sensitivity to mTOR inhibitor therapy in kidney cancer” (The Regents of the University of California, priority 2005, dated 2016)
